Structures are written as SMILES. Counter-ions that a name gives are not always drawn.

The nature of the data set: Storage stability of Vilazodone HCl polymorphic forms. The following applies: for storage stability: at accelerated condition (tables 3 & 4). The format is physicochemical.
Where [1] appears, read: Stability at 40 ± 2° C. & 75 ± 5% RH, Final.
[2] abbreviates: Stability at 40 ± 2° C. & 75 ± 5% RH, Final, hydrochloride.
The mark [3] stands for this setting: Stability at 40 ± 2° C. & 75 ± 5% RH, Initial, hydrochloride.
Setting [4] is: Stability at 60 ± 2° C., Final, hydrochloride.
The mark [5] stands for this setting: Stability at 60 ± 2° C., Initial, hydrochloride.

With `N#Cc1ccc2[nH]cc(CCCCN3CCN(c4ccc5oc(C(N)=O)cc5c4)CC3)c2c1` [Form A, 1-[4-(5-cyanoindol-3-yl)butyl]-4-(2-carbamoylbenzofuran-5-yl) piperazine hydrochloride], the storage stability result is recorded as “good storage stability”. Further, under setting [1], the Description result is “white to off” and the Purity worked out at 99.60%. This molecule came in with a Moisture content under setting [2] of 1.29%. Under setting [3], this molecule showed a Moisture content of 1.10% and a Purity of 99.65%. Also, the Description result (Stability at 60 ± 2° C., Final) is listed as “white to off”. Moreover, under setting [4], the Moisture content turned out to be 0.76% and the Purity is 99.65%. Under setting [5], this molecule showed a Moisture content of 1.10% and a Purity of 99.65%.

For the molecule `N#Cc1ccc2[nH]cc(CCCCN3CCN(c4ccc5oc(C(N)=O)cc5c4)CC3)c2c1` [Form B, 1-[4-(5-cyanoindol-3-yl)butyl]-4-(2-carbamoylbenzofuran-5-yl) piperazine hydrochloride], the storage stability result was “good storage stability”. Further, under setting [1], the Description entry is reported as “white to off” and the Purity was 99.60%. Under setting [2], the Moisture content is reported as 1.91%. Also, under setting [3], the Description result is reported as “white to off”, the Moisture content was 2.06% and the Purity was determined as 99.62%. The Description result (Stability at 60 ± 2° C., Final) was “white to off”. Under setting [4], this molecule showed a Moisture content of 0.81% and a Purity of 99.60%. In addition, under setting [5], the Description entry is on record as “white to off”, the Moisture content is given as 2.06% and the Purity worked out at 99.62%.

Values taken from patent US20140303185A1, “NOVEL POLYMORPHS OF VILAZODONE HYDROCHLORIDE” (ORCHID CHEMICALS & PHARMACEUTICALS LIMITED, priority 2013, published 2014).
